The source of these data is patent publication EP0504938A2, “Prophylactic and therapeutic agent for bone diseases comprising di- or tripeptide derivative as active ingredient” (SUNTORY LIMITED, priority 1991, dated 1992).

Non-standard residues stand in square brackets, D forms with d. Residues, ends and D or L forms follow the SMILES beside them. *: point of attachment. Nle = CCCC[C@H](N)C(=O)O; Cbz = O=C(OCc1ccccc1)*

In data set [1] the test system is rat hypercalcemia induced by PTHrp(1-34). Briefly: Rat hypercalcemia induced by PTHrp(1-34), intraperitoneal administration. In kind it is in vivo, male Wistar rats. To be noted: 10 mg/kg intraperitoneal; for Ca conc. ± standard error: blood 1 hour after PTHrp, n = 5. On the procedure:
To male Wistar rats aged 5 weeks (70 - 90 g, 5 animals in each group), 10 mg/kg body weight of Compound 1 was intraperitoneally administered 0.5, 1, 2 and 4 hours before the administration of PTHrp(1-34). PTHrp(1-34) was intravenously injected into the animals at the level of 5 nmole/kg. One hour after the administration of PTHrp(1-34), a blood sample was collected from each animal and the blood calcium concentration was determined by the same method as the one employed in Example 1.

Data set [2] is described as follows: Acute toxicity, intraperitoneal. In kind it is in vivo. Particulars: 2 g/kg intraperitoneally, rats.
For data set [3], the system named is secondary hyperparathyroidism. Briefly: Secondary hyperparathyroidism, calcium-deficient diet model. The format is in vivo, male Wistar rats. To be noted: 40 mg/kg oral after 5 days calcium-deficient diet; blood 5 hours after administration. As for the experimental part: In a calcium-deficient diet model system of rats, parathyroid hormone is released in order to maintain the blood calcium concentration within a normal range. In other words, the parathyroid hormone induces bone resorption so that the blood calcium concentration is maintained within a normal range.
Taking advantage of the above-mentioned model system, male Wistar rats aged 5 weeks (70 - 90 g, 5 animals in each group) were fed on calcium-deficient diet for 5 days. After fasting overnight, 40 mg/kg body weight of the compounds listed in Table 1 were orally administered to the rats. 5 hours after the administration of the drugs, the blood calcium concentration of each animal was determined by the same method as the one employed in Example 1.

Data set [4] has as its system rat hypercalcemia induced by PTHrp(1-34). Briefly: Rat hypercalcemia induced by PTHrp(1-34), oral administration. In kind it is in vivo, male Wistar rats. To be noted: 4 hours before PTHrp(1-34) 5 nmole/kg i.v., blood 1 hour after PTHrp, n = 5. As for the experimental part:
To male Wistar rats aged 5 weeks (70 - 90 g, 5 animals in each group), 40 mg/kg body weight of the compounds listed in Table 2 and 40 and 80 mg/kg body weight of the compounds listed in Table 3 were orally administered. After 4 hours, 5 nmole/kg of PTHrp(1-34) was intravenously injected into the animals.
One hour after the administration of PTHrp(1-34), a blood sample was collected from each rat and the blood calcium concentration was determined by the octocresolphthalein complexone method.

In the case of `CCCC[C@@H](C=O)NC(=O)[C@H](CC(C)C)NC(=O)OCc1ccccc1` [Compound 1, N-benzyloxycarbonyl-leucyl-norleucinal], the “suppression of the increase in the blood calcium concentration (result in words)” value in data set [1] (0.5 to 4 hours before PTHrp(1-34)) is “continuously effected significant suppression”. Besides, the “Ca conc. ± standard error” value in data set [1] (0.5 hr before PTHrp(1-34)) was 11.74 ± 0.07 mg/dL; in data set [1] (1 hr before PTHrp(1-34)), 11.28 ± 0.07 mg/dL; in data set [1] (2 hr before PTHrp(1-34)), 11.56 ± 0.09 mg/dL; in data set [1] (4 hr before PTHrp(1-34)) it was 11.91 ± 0.09 mg/dL. For the same compound, the “acute toxicity (general conditions, mortality)” value in data set [2] is on record as “neither any change in the general conditions of the animals nor any mortal case was observed”. On to `CCCCC(C=O)NC(=O)C(CC(C)C)NC(=O)CCCc1ccccc1` (centres unmarked) [Compound 2], for which, in data set [3], the “blood calcium concentration (result in words)” value is recorded as “significantly reduced”. The same measure, in the same setting: under `CCCCC(C=O)NC(=O)C(CC(C)C)NC(=O)OC(C)(C)C` (centres unmarked) [Compound 6] stands “significantly reduced”; under `CCCCC(C=O)NC(=O)C(CC(C)C)NC(=O)OCc1ccc(Cl)cc1` (centres unmarked) [Compound 8], “significantly reduced”. Same read-out and setting: with `CCCCC(C=O)NC(=O)C(CC(C)C)NC(=O)OCc1ccc(OC)cc1` (centres unmarked) [Compound 9] the entry was “significantly reduced”; with `CCCCC(C=O)NC(=O)C(CC(C)C)NC(=O)OCC(Cl)(Cl)Cl` (centres unmarked) [Compound 11], “significantly reduced”; with `CCCCC(C=O)NC(=O)C(CC(C)C)NP(=S)(c1ccccc1)c1ccccc1` (centres unmarked) [Compound 15], “significantly reduced”. As for `CSCC[C@@H](C=O)NC(=O)[C@H](CC(C)C)NC(=O)[C@H](CC(C)C)NC(C)=O` [Compound 21, N-Acetyl-leucyl-leucyl-methioninal] (Ac-Leu-Leu-Met-aldehyde), the “Ca conc. ± standard error” value is 9.78 ± 0.08 mg/dL in data set [4] (40 mg/kg oral) and 9.61 ± 0.13 mg/dL in data set [4] (80 mg/kg oral). The corresponding values for `CCCC[C@@H](C=O)NC(=O)[C@H](CC(C)C)NC(=O)[C@H](CC(C)C)NC(C)=O` [Compound 22, N-Acetyl-leucyl-leucyl-norleucinal] (Ac-Leu-Leu-[Nle]-aldehyde) are 9.49 ± 0.20 mg/dL and 9.52 ± 0.11 mg/dL. For `CCCC[C@@H](C=O)NC(=O)[C@H](CC(C)C)NC(=O)[C@H](CC(C)C)NC(=O)OCc1ccccc1` [Compound 23, N-Benzyloxycarbonyl-leucyl-leucyl-norleucinal] (Cbz-Leu-Leu-[Nle]-aldehyde) the same measures were 9.53 ± 0.08 mg/dL and 9.28 ± 0.66 mg/dL. For `CC(C)CC(NC(=O)C1OC1C(=O)O)C(=O)NCCCCNC(=N)N` [Compound E-64, L-trans-epoxysuccinyl-L-leucineamide-(e-guanide)-butane, reference compound] the same measures were 9.69 ± 0.21 mg/dL and 9.61 ± 0.12 mg/dL.
